Test results: BigSolDB 2.1

O=[N+]([O-])c1cc[nH]n1
solubility (mole fraction)
Conditions	283.15 K	288.15 K	293.15 K	298.15 K	303.15 K	308.15 K	313.15 K	318.15 K	323.15 K
in 1,2-dichlorobenzene	0.0009	0.00242	0.00425	0.00666	0.00908	0.0113	0.0139	0.0166	0.0197
in 2-ethylhexyl acetate	0.00998	0.0107	0.0115	0.0122	0.0134	0.0146	0.0166	–	–
in anisole	0.00502	0.00551	0.00623	0.00688	0.0078	0.0092	0.0112	0.0132	0.0156
in benzonitrile	0.0197	0.0223	0.0253	0.0291	0.0342	0.0396	0.0486	0.0631	0.0828
in benzyl alcohol	0.0263	0.0296	0.0333	0.0391	0.0452	0.0508	0.0581	0.0672	0.0753
in mesitylene	0.00129	0.00162	0.002	0.00246	0.00288	0.00335	0.00401	0.00476	0.00578
in n-octanol	0.0127	0.0144	0.0164	0.0192	0.0232	0.0272	0.0315	0.0362	0.0429
